Test results: US4900744A, “Antihypercholesterolemic 4,5-diaryl-2-substituted thioimidazoles” (E. I. Du Pont de Nemours and Company, priority 1988, dated 1990)

How the values were obtained:
[1] = target: acyl-CoA:cholesterol acyltransferase (ACAT); test: Inhibition of Acyl CoA:Cholesterol Acyltransferase (ACAT) in Hepatic Microsomes; format: biochemical, rat (male Sprague Dawley); conditions: rat hepatic microsomes, 75 μM 14C-oleoyl-CoA, pH 7.4, 37° C., 15 min preincubation, 10 min assay; read-out: IC50 In Vitro ACAT
Description: The ability of the compounds of this invention to inhibit ACAT, the enzyme responsible for the intracellular synthesis of cholesteryl esters, was tested as follows. Male Sprague Dawley rats weighing 150-300 g were fed rat chow ad libitum. The animals were fasted for twenty-four hours prior to being sacrificed by decapitation. The livers were perfused in situ with 50 ml of cold 0.25 M sucrose, excised, and homogenized in three volumes of 0.1 M phosphate buffer, pH 7.4 containing 0.5 mM EDTA (ethylenediaminetetraacetic acid), 1.0 mM glutathione, 0.25 M sucrose and 20 μM leupeptin. Microsomes were obtained by differential centrifugation; the supernatant from an initial spin at 15,000×g. for 15 minutes (which removed cell debris and mitochondria) was centrifuged at 105,000×g. for 1 hr to pellet the microsomes. The microsomes were suspended in homogenization buffer reisolated by centrifugation and stored at -70° C. Microsomes were used within one month of preparation.
The control assay in a final volume of 200 μl consisted of 200 μg of microsomal protein, 75 μM ^14 C-oleoyl-CoA (10,000 dpm/nmol) in 0.1 M phosphate, pH 7.4 containing 1 mM glutathione. Compounds were added in 5-10 μl of DMSO (dimethyl sulfoxide) and additional controls were run with DMSO only. All components, except the radiolabeled oleoyl-CoA, were preincubated for 15 min at 37° C. prior to the initiation of the reaction by addition of radiolabeled oleoyl-CoA. The assay was terminated after 10 min by the addition of 500 μl of hexane: isopropanol (3:2, v/v). 20,000 dpm of ^3 H-cholesteryl oleate and 10 μg of unlabeled cholesteryl oleate and oleic acid were added as an internal standard and carriers, respectively. After allowing 10 min for lipid extraction, the samples were centrifuged at 1,000×g for 10 mins to separate the solvent layers. 200 μl of the top (hexane) layer containing the neutral lipids was spotted onto a Baker SI250-Pa silica gel TLC plate and the plate developed using a hexane: diethyl ether: acetic acid (170:30:1 v/v/v) mobile phase. The lipids were visualized by their interaction with iodine vapor and the cholesteryl ester spot was scraped into a scintillation vial and the radioactivity on the gel was determined by standard liquid scintillation spectrometry. The specific activity of ACAT in control microsomes averaged 260 pmol/min/mg microsomal protein. The % inhibition of the various compounds was the ACAT activity in the presence of the inhibitor divided by the activity of the control (vehicle alone) times 100%-100.

J774 cells = test: Inhibition of Cholesterol Esterification in Mammalian Cells (macrophage-like cell line J774); format: cell-based; conditions: Mus musculus; murine macrophage-like cell line J774, +LDL (200 μg/ml), 14C-oleic acid incorporation into cholesteryl ester
Description: The esterification of cholesterol was determined in the murine macrophage-like cell line J774. J774 cells were placed in 60 mm dishes at a density of 200,000 cells per dish in 3.0 ml of Dulbecco's minimal essential medium (DMEM) containing 10% Fetal bovine serum. Cells were incubated at 37° C. in an atmosphere of 5% CO2 and 93% humidity. After 24 hr, the cells were washed with 2 ml of Hanks buffered saline and the media changed to 1.5 ml of DMEM containing 1% Cabosil® treated serum (CTS) to up-regulate LDL receptors. At 56 hr, fresh media that contained 1% CTS was added to the cells; in all but control dishes the media contained 200 μg LDL/ml to increase the intracellular concentration of cholesterol and promote esterification. At 72 hr, various inhibitors were added to the cells in DMSO (10 μl/ml maximum). At 74 hr, the cells were pulsed with 0.1 mM ^14 C-oleic acid (20,000 dpm/nmol) complexed with bovine serum albumin (BSA) to follow cholesteryl ester formation. The experiment was terminated at 76 hrs by washing the monolayers 3 times with 3 ml of Tris-buffered saline at 4° C. The lipids were extracted by incubating the monolayers with 1.5 ml of hexane: isopropanol (3:2, v/v) for 30 mins under gentle agitation. During this period, 20,000 dpm ^3 H-cholesteryl linoleate and 10 μg of cholesteryl oleate were added as an internal standard and carrier respectively. The organic solvent was removed and the cells were washed with an additional 1.0 ml of hexane: isopropanol which was combined with the original extract. The cells were allowed to dry overnight, digested with 1.5 ml of 0.2 N sodium hydroxide for 1 hr, and an aliquot of the solubilized protein used for protein determination using the Lowry method. The organic extract was taken to dryness, the residue resuspended in 100 μl of chloroform and the lipids separated on silica gel impregnated glass fiber plates using a hexane: diethyl ether: acetic acid (170:30:1, v/v/v) solvent system. The cholesteryl ester spot was visualized with iodine, cut out, and transferred to scintillation vials to determine the amount of radioactivity. The conversion of oleic acid to cholesteryl ester in the control averaged 0.54 nmol/hr/mg protein and was increased upon the addition of LDL to about 2.37 nmol/hr/mg protein. Inhibition of esterification by various compound was determined by dividing the specific activity (+LDL) in the presence of the inhibitor by the specific activity (+LDL) of the vehicle alone times 100% -100.

SMILES | IC50 [1] | IC50 (J774 cells)
O=C(O)CCCCCCCCCCSc1nc(-c2ccccc2)c(-c2ccccc2)[nH]1 [Example 58, 11-(4,5-Diphenyl-1H-imidazol-2-ylthio)undecanoic acid] | 1 µM | 17 µM
O=C(O)CCCCCCCOc1nc(-c2ccccc2)c(-c2ccccc2)n1-c1ccccc1 [Octimibate, reference compound] | 23 µM | 78 µM
O=C(O)CCCCCCCSc1nc(-c2ccccc2)c(-c2ccccc2)[nH]1 [Example 57, 8-(4,5-Diphenyl-1H-imidazol-2-ylthio)octanoic acid] | 2 µM | 80 µM

The next lines start with the values.

IC50 [1] | IC50 (J774 cells) | SMILES
1 µM | 17 µM | CCOC(=O)CCCCCCCCCCSc1nc(-c2ccccc2)c(-c2ccccc2)[nH]1 [Example 2, 11-(4,5-Diphenyl-1H-imidazol-2-ylthio)undecanoic acid ethyl ester]
2 µM | 19 µM | CCOC(=O)CCCCCCCSc1nc(-c2ccccc2)c(-c2ccccc2)[nH]1 [Example 1, 8-(4,5-Diphenyl-1H-imidazol-2-ylthio)octanoic acid ethyl ester]
